{"source": "paper PMC4276551", "about": "(Journal of the renin-angiotensin-aldosterone system : JRAAS, 2014)", "key": {"[1]": {"details": "pH 7.4"}, "[2]": {"details": "dose higher than the maximal recommended dose for heart failure and hypertension; without a further decline in blood pressure; cited from earlier work"}, "[3]": {"tested_on": "Ang I to Ang-(1–7) converting peptidase activity in isolated nuclei from NRK-52E cells", "assay": "Peptide metabolism: generation of Ang-", "format": "biochemical, rat", "details": "37°C, 125I-Ang I 0.5 nM; SCH39370 10 μM, ZPP 50 μM; HPLC with γ detector"}, "[4]": {"target": "T1, renin (NRK-52E cell nuclei) (Rattus norvegicus, UniProt P08424)", "T1 sequence (P08424 65-402)": "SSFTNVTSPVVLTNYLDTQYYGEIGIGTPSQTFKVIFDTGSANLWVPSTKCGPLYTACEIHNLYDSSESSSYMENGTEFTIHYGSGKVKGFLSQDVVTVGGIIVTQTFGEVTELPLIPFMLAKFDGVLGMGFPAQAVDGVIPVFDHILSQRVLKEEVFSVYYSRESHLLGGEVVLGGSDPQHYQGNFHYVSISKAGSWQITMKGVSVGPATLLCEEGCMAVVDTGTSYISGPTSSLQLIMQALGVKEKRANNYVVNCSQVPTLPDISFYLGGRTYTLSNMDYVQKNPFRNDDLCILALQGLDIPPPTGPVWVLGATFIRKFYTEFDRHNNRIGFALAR", "assay": "Renin activity assay in nuclear lysate of NRK-52E cells", "format": "biochemical", "details": "basal (control) nuclear lysate, aliskiren 1 μM, 37°C, 90 min; n = 3 passages"}, "(pro)renin receptor": {"tested_on": "(pro)renin receptor", "details": "cited from earlier work"}}, "note": "Where a SMILES comes first, the peptide text is derived from it. Where no end group is shown, it is not given here. The star is where a group is joined. Cbz = O=C(OCc1ccccc1)*", "data": [{"molecule": "DRVYIHPFHL [Ang I]", "values": [{"measurement": "Half-life in nuclear cell extracts", "setting": "[1]", "value": 1.22, "unit": "h"}]}, {"molecule": "CCOc1nc2cccc(C(=O)O)c2n1Cc1ccc(-c2ccccc2-c2nnn[nH]2)cc1", "note": "[candesartan]", "values": [{"measurement": "Effect on persistent proteinuria", "setting": "[2]", "value": "significantly reduced"}]}, {"molecule": "O=C(O)C(O)CNC(=O)[C@H](Cc1ccccc1)NC(CCc1ccccc1)C(=O)O", "note": "(stereo partly drawn) [SCH39370]", "values": [{"measurement": "Effect on generation of Ang-(1–7) in the nuclear extract", "setting": "[3]", "value": "did not block"}]}, {"molecule": "O=C[C@@H]1CCCN1C(=O)[C@@H]1CCCN1C(=O)OCc1ccccc1", "note": "[ZPP, Z-prolyl prolinal] (Cbz-Pro-Pro-aldehyde)", "values": [{"measurement": "Effect on generation of Ang-(1–7) in the nuclear extract", "setting": "[3]", "value": "did not block"}]}, {"molecule": "COCCCOc1cc(C[C@@H](C[C@H](N)[C@@H](O)C[C@H](C(=O)NCC(C)(C)C(N)=O)C(C)C)C(C)C)ccc1OC", "note": "[aliskiren]", "values": [{"measurement": "Reduction of nuclear renin activity", "setting": "[4]", "value": 83, "unit": "%"}, {"measurement": "Effect on binding of (pro)renin to the receptor", "setting": "(pro)renin receptor", "value": "do not block"}]}]}
